# Assay results reported in ChEMBL document CHEMBL3885881, “DrugMatrix”.
# Species on record: Rattus norvegicus
# Assay: DrugMatrix - Regimen: Daily Repeat
# Format: toxicity, organism-based, Sprague-Dawley
# Design: regimen Daily Repeat, gender Male, age 6-8 weeks
# Conditions: in vivo, po, route oral GAVAGE, vehicle .5 % CMC; for ABSOLUTE BASOPHIL / ABSOLUTE EOSINOPHIL / ABSOLUTE LYMPHOCYTE / ABSOLUTE MONOCYTE / ABSOLUTE SEGMENTED NEUTROPHIL / BASOPHIL / EOSINOPHIL / ERYTHROCYTE COUNT / HEMATOCRIT / HEMOGLOBIN / LEUKOCYTE COUNT / LYMPHOCYTE / MEAN CORPUSCULAR HEMOGLOBIN / MEAN CORPUSCULAR HEMOGLOBIN CONCENTRATION / MEAN CORPUSCULAR VOLUME / MONOCYTE / NEUTROPHIL / NUCLEATED RED BLOOD CELLS / PLATELET COUNT: tissue Blood; for ALANINE AMINOTRANSFERASE / ALBUMIN / ALKALINE PHOSPHATASE / ASPARTATE AMINOTRANSFERASE / BLOOD UREA NITROGEN / CARBON DIOXIDE / CHLORIDE / CHOLESTEROL / CREATINE PHOSPHOKINASE / CREATININE / GLUCOSE / LACTATE DEHYDROGENASE / LIPASE / PHOSPHORUS / POTASSIUM / SODIUM / TOTAL BILIRUBIN / TOTAL PROTEIN / URIC ACID: tissue Plasma
# [1] = 100 mg/kg, 120 h, dose level Low, time 5 day
# [2] = 1503 mg/kg, 72 h, dose level High, time 3 day
# [3] = 1503 mg/kg, 120 h, dose level High, time 5 day
structure (smiles),measurement,setting,value
Cl.NC[C@H]1CC[C@H](C(=O)Oc2ccc(CCC(=O)O)cc2)CC1 [CETRAXATE HYDROCHLORIDE],ABSOLUTE BASOPHIL,[1],0 CELLS/uL
same,ABSOLUTE EOSINOPHIL,[1],157.33 CELLS/uL
same,ABSOLUTE LYMPHOCYTE,[1],16804.67 CELLS/uL
same,ABSOLUTE MONOCYTE,[1],401.67 CELLS/uL
same,ABSOLUTE SEGMENTED NEUTROPHIL,[1],1803 CELLS/uL
same,BASOPHIL,[1],0%
same,EOSINOPHIL,[1],0.67%
same,ERYTHROCYTE COUNT,[1],5.83 x10E6/uL
same,HEMATOCRIT,[1],37.17%
same,HEMOGLOBIN,[1],13.9 G/DL
same,LEUKOCYTE COUNT,[1],19.17 x10E3/uL
same,LYMPHOCYTE,[1],88.33%
same,MEAN CORPUSCULAR HEMOGLOBIN,[1],23.87 pg
same,MEAN CORPUSCULAR HEMOGLOBIN CONCENTRATION,[1],37.4 G/DL
same,MEAN CORPUSCULAR VOLUME,[1],63.73 fL
same,MONOCYTE,[1],2%
same,NEUTROPHIL,[1],9%
same,NUCLEATED RED BLOOD CELLS,[1],0 /100WBC
same,PLATELET COUNT,[1],1287.67 x10E3/uL
same,ALANINE AMINOTRANSFERASE,[1],53.67 u/L
same,ALBUMIN,[1],4.23 G/DL
same,ALKALINE PHOSPHATASE,[1],376.33 u/L
same,ASPARTATE AMINOTRANSFERASE,[1],93.67 u/L
same,BLOOD UREA NITROGEN,[1],19.33 mg/dL
same,CARBON DIOXIDE,[1],27 mmol/L
same,CHLORIDE,[1],104.67 MEQ/L
same,CHOLESTEROL,[1],78.67 mg/dL
same,CREATINE PHOSPHOKINASE,[1],449.67 u/L
same,CREATININE,[1],0.23 mg/dL
same,GLUCOSE,[1],160.33 mg/dL
same,LACTATE DEHYDROGENASE,[1],370.33 u/L
same,LIPASE,[1],9.67 u/L
same,PHOSPHORUS,[1],13.2 mg/dL
same,POTASSIUM,[1],6.82 MEQ/L
same,SODIUM,[1],143.93 MEQ/L
same,TOTAL BILIRUBIN,[1],0.17 mg/dL
same,TOTAL PROTEIN,[1],5.97 G/DL
same,URIC ACID,[1],2.07 mg/dL
same,ABSOLUTE BASOPHIL,[2],0 CELLS/uL
same,ABSOLUTE EOSINOPHIL,[2],121 CELLS/uL
same,ABSOLUTE LYMPHOCYTE,[2],13133.33 CELLS/uL
same,ABSOLUTE MONOCYTE,[2],333 CELLS/uL
same,ABSOLUTE SEGMENTED NEUTROPHIL,[2],979.33 CELLS/uL
same,BASOPHIL,[2],0%
same,EOSINOPHIL,[2],1%
same,ERYTHROCYTE COUNT,[2],5.73 x10E6/uL
same,HEMATOCRIT,[2],36.13%
same,HEMOGLOBIN,[2],13.17 G/DL
same,LEUKOCYTE COUNT,[2],14.57 x10E3/uL
same,LYMPHOCYTE,[2],90%
same,MEAN CORPUSCULAR HEMOGLOBIN,[2],23.03 pg
same,MEAN CORPUSCULAR HEMOGLOBIN CONCENTRATION,[2],36.43 G/DL
same,MEAN CORPUSCULAR VOLUME,[2],63.13 fL
same,MONOCYTE,[2],2.33%
same,NEUTROPHIL,[2],6.67%
same,NUCLEATED RED BLOOD CELLS,[2],0.33 /100WBC
same,PLATELET COUNT,[2],1198.67 x10E3/uL
same,ALANINE AMINOTRANSFERASE,[2],68 u/L
same,ALBUMIN,[2],4.1 G/DL
same,ALKALINE PHOSPHATASE,[2],375.67 u/L
same,ASPARTATE AMINOTRANSFERASE,[2],167.67 u/L
same,BLOOD UREA NITROGEN,[2],17.67 mg/dL
same,CARBON DIOXIDE,[2],25 mmol/L
same,CHLORIDE,[2],101.33 MEQ/L
same,CHOLESTEROL,[2],63.67 mg/dL
same,CREATINE PHOSPHOKINASE,[2],4593 u/L
same,CREATININE,[2],0.28 mg/dL
same,GLUCOSE,[2],200 mg/dL
same,LACTATE DEHYDROGENASE,[2],387 u/L
same,LIPASE,[2],10.33 u/L
same,PHOSPHORUS,[2],12.87 mg/dL
same,POTASSIUM,[2],6.87 MEQ/L
same,SODIUM,[2],143.37 MEQ/L
same,TOTAL BILIRUBIN,[2],0.3 mg/dL
same,TOTAL PROTEIN,[2],5.53 G/DL
same,URIC ACID,[2],2.37 mg/dL
same,ABSOLUTE BASOPHIL,[3],0 CELLS/uL
same,ABSOLUTE EOSINOPHIL,[3],225.33 CELLS/uL
same,ABSOLUTE LYMPHOCYTE,[3],13517.67 CELLS/uL
same,ABSOLUTE MONOCYTE,[3],404.33 CELLS/uL
same,ABSOLUTE SEGMENTED NEUTROPHIL,[3],1186 CELLS/uL
same,BASOPHIL,[3],0%
same,EOSINOPHIL,[3],1.33%
same,ERYTHROCYTE COUNT,[3],6.38 x10E6/uL
same,HEMATOCRIT,[3],39.27%
same,HEMOGLOBIN,[3],14.57 G/DL
same,LEUKOCYTE COUNT,[3],15.33 x10E3/uL
same,LYMPHOCYTE,[3],88.33%
same,MEAN CORPUSCULAR HEMOGLOBIN,[3],22.83 pg
same,MEAN CORPUSCULAR HEMOGLOBIN CONCENTRATION,[3],37.13 G/DL
same,MEAN CORPUSCULAR VOLUME,[3],61.57 fL
same,MONOCYTE,[3],2.67%
same,NEUTROPHIL,[3],7.67%
same,NUCLEATED RED BLOOD CELLS,[3],0 /100WBC
same,PLATELET COUNT,[3],1170.67 x10E3/uL
same,ALANINE AMINOTRANSFERASE,[3],59 u/L
same,ALBUMIN,[3],4.47 G/DL
same,ALKALINE PHOSPHATASE,[3],424.33 u/L
same,ASPARTATE AMINOTRANSFERASE,[3],93.33 u/L
same,BLOOD UREA NITROGEN,[3],17 mg/dL
same,CARBON DIOXIDE,[3],26.67 mmol/L
same,CHLORIDE,[3],105.67 MEQ/L
same,CHOLESTEROL,[3],58 mg/dL
same,CREATINE PHOSPHOKINASE,[3],497 u/L
same,CREATININE,[3],0.24 mg/dL
same,GLUCOSE,[3],175.33 mg/dL
same,LACTATE DEHYDROGENASE,[3],205.33 u/L
same,LIPASE,[3],9 u/L
same,PHOSPHORUS,[3],12.87 mg/dL
same,POTASSIUM,[3],6.66 MEQ/L
same,SODIUM,[3],144.8 MEQ/L
same,TOTAL BILIRUBIN,[3],0.2 mg/dL
same,TOTAL PROTEIN,[3],6.27 G/DL
same,URIC ACID,[3],1.93 mg/dL
